The record followed here is patent publication US11022604B2, “Dock derived compound against laminin receptor (37 LR) and uses thereof” (Purdue Research Foundation, priority 2017, dated 2021).

The structures appear in SMILES notation.

This experiment concerns PC-3 cells. Put plainly: Label-free quantitative proteomics and Ingenuity Pathway Analysis. It counts as cell-based, human. The note with it: PC-3, 10 μM, 72 hours. How it is done:
FIG. 7. Volcano Plot of Differentially regulated proteins in response to C3 treatment. PC-3 cells were treated with DMSO or 10 μM C3 for 72 hours and proteins were quantified using label free quantitative mass spectrometry. Proteins were graphed by fold change (Difference) and significance (−Log p) using a false discovery rate of 0.05 and an S0 of 0.1.
FIG. 8 Ingenuity pathway analysis of proteomic data from C3 treatment of PC-3 cells.
Wound Healing Assay. PC-3 cells were seeded in 6 well plates at 3×10^5 cells per well in complete media until the cells reached confluency. Three horizontal and three vertical scratches were made in the confluent monolayers using a standard 200 μL pipette tip and cellular debris were removed by washing with 1×DPBS three times. 1×RPMI-1640 supplemented with C3 or DMSO was added and cells were incubated for 48 hours as described previously. […] Images were uploaded and analyzed for scratch geometry using the tscratch program (96). First, global thresholding was performed, then individual images were manually inspected for single image threshold adjustment and scratch geometries were quantified. […] The samples were analyzed using the Dionex UltiMate 3000 RSLC Nano System coupled to the Q Exactive™ HF Hybrid Quadrupole-Orbitrap MS (Thermo Scientific). […]

For the compound `O=C(c1cc(F)cc2c1OCOC2)N1CCN(C2c3ccccc3-c3ccccc32)CC1` [Compound C3, [4-(9h-fluoren-9-yl)piperazino](6-fluoro-4h-1,3-benzodioxin-8-yl)methanone], the ICT1 protein level came out at 1.9 FC.
